Measured values from publication PMC8248988, “A signal capture and proofreading mechanism for the KDEL-receptor explains selectivity and dynamic range in ER retrieval” (eLife, 2021).

Key:
Type in all cases: cell-based
Conditions in all cases: COS-7 cells
[1] = target: T1, human KDELR1 D50N/E117Q (Homo sapiens, UniProt P24390, D50N/E117Q); assay: ER retrieval assay, KDELR1 D50N/E117Q-GFP
T1 construct: expressed in transfected cells; host or cells: COS-7
Description: (§1) To create KDELR1-GFP and KDELR2-GFP, the reading frames for Homo sapiens KDELR1 (Uniprot: P24390) and KDELR2 (Uniprot: P33947) were cloned into the pEF5/FRT low level mammalian expression vector with a C-terminal 20 amino acid linker made up of 5 copies of Gly-Ser-Ser-Ser followed by GFP. Specific point mutations were introduced using the Quickchange protocol (Stratagene) and are described in the key resources table and figures. To create the mScarlet-KDEL^sec ligand construct, mScarlet with an N-terminal hGH signal peptide and the 16 C-terminal residues of human BiP at its C-terminus, containing the KDEL signal, was cloned into the pcDNA3.1 vector. […] The Golgi marker protein TGN46 was detected by antibody (sheep anti-TGN46 AHP500G; AbD Serotec) and an Alexa 647 conjugated secondary anti-sheep secondary (A-21448, Invitrogen). In Figure 1d and e, endogenous KDELR was detected by antibody (mouse anti-KDELR ADI-VAA-PT048; Enzo Life Sciences) and Alexa 488 conjugated anti-mouse secondary antibody (A-21202, Invitrogen). For retrieval assays in other figures, KDELR-GFP fusion proteins were directly detected by fluorescence. The mScarlet-xDEL fusion proteins were directly detected by fluorescence. […] The fraction of KDEL receptor in the Golgi apparatus was calculated by dividing the Golgi signal by the total cell signal. […]

[2] = target: T2, human KDELR1 D50N/N54K (Homo sapiens, UniProt P24390, D50N/N54K); assay: ER retrieval assay, KDELR1 D50N/N54K-GFP
T2 construct: expressed in transfected cells; host or cells: COS-7
T2 sequence (P24390 whole entry D50N/N54K): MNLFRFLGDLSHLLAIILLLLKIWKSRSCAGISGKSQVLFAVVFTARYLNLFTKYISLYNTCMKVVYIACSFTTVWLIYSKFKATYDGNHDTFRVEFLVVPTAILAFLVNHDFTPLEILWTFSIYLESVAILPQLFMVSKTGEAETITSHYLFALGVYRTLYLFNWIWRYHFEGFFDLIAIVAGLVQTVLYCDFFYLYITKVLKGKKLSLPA
Description: as §1

[3] = target: T3, human KDELR1 N54K (Homo sapiens, UniProt P24390, N54K); assay: ER retrieval assay, KDELR1 N54K-GFP
T3 construct: expressed in transfected cells; host or cells: COS-7
T3 sequence (P24390 whole entry N54K): as the sequence (P24390 whole entry D50N/N54K) above, with N50D counted along it
Description: as §1

T1 sequence (P24390 whole entry D50N/E117Q): as the sequence (P24390 whole entry D50N/N54K) above, with K54N, E117Q counted along it

ADEL [pcDNA3.1 hGHss-mScarlet-H. sapiens BiP639-654K651A (ADEL^SEC), secreted mScarlet fusion with human BiP C-terminus, ADEL signal]
ligand-induced receptor retrieval to the ER (in words) [1]: switched specificity towards ADEL and DDEL | ligand-induced receptor retrieval to the ER (in words) [2]: gave a response | ligand-induced receptor retrieval to the ER (in words) [3]: did not result in ADEL or DDEL recognition
